From patent US11505529B2, “8-phenyl-isoquinolines and pharmaceutical composition thereof used in the treatment of irritable bowel syndrome” (NATIONAL TAIWAN UNIVERSITY, priority 2017, dated 2022) come the findings set out here.

Structures can show the parent of a compound that is named as a salt.

Data set [1] concerns the target 5-HT7R (Homo sapiens, UniProt P34969). Put plainly: 5-HT7 receptor binding affinity.
Data set [2] addresses 5-HT2AR (Homo sapiens, UniProt P28223). Put plainly: 5-HT2A receptor binding affinity.
Data set [3] in a line: log D. Type of data set: physicochemical.
The test system of data set [4] is GW mice. The experiment in a line: Intestinal pain (visceromotor response to colorectal distension) in mice with Giardia postinfection plus water avoidance stress (GW). Type of data set: in vivo, C57BL/6 mice. Particulars: for intestinal pain (VMR): p.o. single dose 5 mg/Kg, 90 minutes before analysis. From the text:
Two animal models of IBS that had shown visceral hypersensitivity were used in the study, including dual challenge of postinfection combined with psychological stress, and post-inflammation. In the first model, mice were divided into two groups, including one group subjected to dual triggers of Giardia postinfection and water avoidance stress (GW) and the one group pair-fed with saline and non-handled (PN) as uninfected unstressed normal controls. Axenic Giardia lamblia trophozoites (strain GS/M, ATCC 50581) were cultured in vitro and harvested at log-phase as described in Singer et al., (T-cell-dependent control of acute Giardia lamblia infections in mice. Infect. Immun. 2000; 68:170-175) and Davids et al. (Polymeric immunoglobulin receptor in intestinal immune defense against the lumen-dwelling protozoan parasite Giardia. J Immunol 2006; 177:6281-6290). Mice were orally gavaged with 10^7 Giardia trophozoites suspended in 0.2 ml of sterile phosphate-buffered saline (PBS) or pair-fed with the same volume of PBS. The status of Giardia infection was verified after 4-7 days by enumeration of motile trophozoites in the small intestine following a cold-shock protocol (disclosed in Scott K G, Yu L C H, Buret A G. Role of CD8+ and CD4+ T lymphocytes in jejunal mucosal injury during murine giardiasis. Infect. Immun. 2004; 72:3536-3542 and Scott K G, Meddings J B, Kirk D R, et al. Intestinal infection with Giardia spp. reduces epithelial barrier function in a myosin light chain kinase-dependent fashion. Gastroenterology 2002; 123:1179-1190). On the sixth week postinfection in which the trophozoites could not be detected in the small intestine (post-clearance phase), mice were subjected to chronic psychological stress. The procedure of WAS involved placing the mouse on a platform (3×6 cm) in the center of a container (56×50 cm) with 3 cm (vertical height) of room temperature water. Mice remained on the platform for 1 hr to avoid water immersion as a psychological stress without physical harm. The 1-hr stress sessions were carried out for 10 consecutive days to mimic chronic repeated stress, and were performed between 9:00 and 12:00 to minimize the effect of the circadian rhythm. Uninfected and unstressed non-handled animals were kept in their cages as normal controls. On the last day of the stress session, intestinal pain was measured in mice.
For testing of anti-nociceptive effects in the GW model, mice were administered novel 5-HT7R ligands by a single dose 90 or 240 minutes prior to intestinal pain measurement. In additional settings, the novel ligands were repeatedly administered for 10 consecutive days 30 minutes before the start of each stress session and intestinal pain was measured immediately after the last stress session.
Abdominal pain was measured by visceromoter response (VMR) to colorectal distension (CRD) in mice following previously described methods with slight modification (Lu C L, Hsieh J C, Dun N J, et al. Estrogen rapidly modulates 5-hydroxytrytophan-induced visceral hypersensitivity via GPR30 in rats. Gastroenterology 2009; 137:1040-1050; Hong S, Zheng G, Wu X, et al. Corticosterone mediates reciprocal changes in CB 1 and TRPV1 receptors in primary sensory neurons in the chronically stressed rat. Gastroenterology 2011; 140:627-637 e4). Briefly, electrodes made from Teflon-coated stainless steel wire (A-M systems, Carlsborg, Wash.) were implanted in the abdominal external oblique muscles of mice at least 15 days prior to VMR experiments. The electrodes were exteriorized onto the back of the neck. Mice were habituated in the plexiglass cylinder for 30 minutes per day for 3 consecutive days before VMR experiments. The cylinder was used for partial restraint of conscious mice during the CRD experiments. For recording, electrodes were connected to an electromyogram acquisition system (AD instruments, New south wales, Australia). […]

Data set [5] has as its system TNBS mice. Put plainly: Intestinal pain (visceromotor response to colorectal distension) in post-TNBS colitis mice. Type of data set: in vivo, C57BL/6 mice. Particulars: for intestinal pain (VMR): p.o. single dose 5 mg/kg, 90 minutes before analysis. The procedure:
In the second model, intestinal inflammation was induced by intracolonic administration of 10% 2,4,6-trinotrobenzene sulfonic acid (TNBS) in 0.2 ml of 50% ethanol (Sigma-Aldrich, St. Louis, Mo., USA) via a 22-gauge feeding needle. Sham controls were given PBS in the same volume. Intestinal inflammatory parameters and pain levels were measured on various time points after TNBS administration.
For testing of anti-nociceptive effects in the post-TNBS model, mice were administered with novel 5-HT7R ligands by a single dose at 90 or 240 minutes before or by repeated administration of multiple doses for 10 consecutive days prior to intestinal pain measurement.
Abdominal pain was measured by visceromoter response (VMR) to colorectal distension (CRD) in mice following previously described methods with slight modification (Lu C L, Hsieh J C, Dun N J, et al. Estrogen rapidly modulates 5-hydroxytrytophan-induced visceral hypersensitivity via GPR30 in rats. Gastroenterology 2009; 137:1040-1050; Hong S, Zheng G, Wu X, et al. Corticosterone mediates reciprocal changes in CB 1 and TRPV1 receptors in primary sensory neurons in the chronically stressed rat. Gastroenterology 2011; 140:627-637 e4). Briefly, electrodes made from Teflon-coated stainless steel wire (A-M systems, Carlsborg, Wash.) were implanted in the abdominal external oblique muscles of mice at least 15 days prior to VMR experiments. The electrodes were exteriorized onto the back of the neck. Mice were habituated in the plexiglass cylinder for 30 minutes per day for 3 consecutive days before VMR experiments. The cylinder was used for partial restraint of conscious mice during the CRD experiments. For recording, electrodes were connected to an electromyogram acquisition system (AD instruments, New south wales, Australia). The colon was distended by inflating a balloon catheter inserted intra-anally such that it ended 1.5 cm proximal to the anus. Mice were subjected to […] 10-second distensions (15, 40, and 65 mmHg) with 3-min rest intervals. The electromyographic (EMG) activity was amplified and digitized using a transducer (AD instruments) connected to a P511 AC amplifier (Grass instruments, Calif., USA) and Powerlab device with Chart 5 software (AD instruments). The EMG activity was rectified, and the response was recorded as the increase in the area under the curve (AUC) of the EMG amplitude during CRD versus the baseline period.

For data set [6], the system named is colonic tissues. Put plainly: Colonic histology (adverse response) after treatment in GW and TNBS mice. An excerpt: Intestinal tissues were fixed in 4% paraformaldehyde (PFA) and embedded in paraffin wax with proper orientation of the crypt to villus axis before sectioning. Sections of 5-μm thickness were deparaffinized with xylene and graded ethanol, stained with hematoxylin and eosin (H&E), and observed under a light microscope.

Chain of 5-HT7R (P34969 whole entry): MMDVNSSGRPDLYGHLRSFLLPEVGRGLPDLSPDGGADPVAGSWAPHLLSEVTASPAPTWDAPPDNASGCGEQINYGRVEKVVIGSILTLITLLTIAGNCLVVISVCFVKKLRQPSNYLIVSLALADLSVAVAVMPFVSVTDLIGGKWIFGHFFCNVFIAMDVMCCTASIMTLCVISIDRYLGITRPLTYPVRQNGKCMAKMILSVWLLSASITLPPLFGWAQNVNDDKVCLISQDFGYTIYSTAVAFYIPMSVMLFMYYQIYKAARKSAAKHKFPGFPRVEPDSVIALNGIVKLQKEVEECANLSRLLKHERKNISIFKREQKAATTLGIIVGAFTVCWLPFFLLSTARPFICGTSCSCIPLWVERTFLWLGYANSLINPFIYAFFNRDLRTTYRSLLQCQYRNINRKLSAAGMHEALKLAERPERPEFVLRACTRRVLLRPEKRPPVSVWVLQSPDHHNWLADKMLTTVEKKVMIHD
Chain of 5-HT2AR (P28223 whole entry): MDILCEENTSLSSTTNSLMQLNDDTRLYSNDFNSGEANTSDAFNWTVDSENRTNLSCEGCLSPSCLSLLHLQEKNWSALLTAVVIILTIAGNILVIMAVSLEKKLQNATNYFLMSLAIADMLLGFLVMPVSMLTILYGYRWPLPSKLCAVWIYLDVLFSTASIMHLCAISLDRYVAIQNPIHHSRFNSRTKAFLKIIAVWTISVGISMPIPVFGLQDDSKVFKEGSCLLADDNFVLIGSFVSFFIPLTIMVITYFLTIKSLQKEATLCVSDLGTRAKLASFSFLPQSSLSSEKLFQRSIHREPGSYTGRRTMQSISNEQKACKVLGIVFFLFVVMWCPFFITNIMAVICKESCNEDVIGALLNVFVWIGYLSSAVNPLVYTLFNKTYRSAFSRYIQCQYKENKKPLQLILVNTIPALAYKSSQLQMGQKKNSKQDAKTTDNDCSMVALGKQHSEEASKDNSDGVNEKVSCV

As for `COc1ccccc1-c1c2c(cc(OC)c1OC)CCN(CCCc1ccncc1)C2` [Compound 10, 6,7-dimethoxy-8-(2-methoxyphenyl)-2-(3-(pyridin-4-yl)propyl)-1,2,3,4-tetrahydroisoquinoline], the results for the Ki in data set [1] and in data set [2] were 7.1 nM and over 1000 nM, respectively. The logD in data set [3] turned out to be 2.93.

For the compound `COc1ccccc1-c1c(O)c(OC)cc2c1CN(CCCc1ccncc1)CC2` [Compound 8, 6-methoxy-8-(2-methoxyphenyl)-2-(3-(pyridin-4-yl)propyl)-1,2,3,4-tetrahydroisoquinolin-7-ol], the results for the Ki in data set [1] and in data set [2] were 5.8 nM and over 1000 nM, respectively. In data set [3], the log distribution coefficient (logD) turned out to be 1.68. The “intestinal pain, time response” value in data set [4] (GW mice, 5 mg/kg p.o. at 1.5, 4 or 12 hours prior to pain measurement) is on record as “Reduction of pain levels was seen at three time points”. The “intestinal pain, dose response” value in data set [4] (GW mice, i.p. at 0.05 and 0.5 mg/kg, 90 minutes before analysis (FIG. 9A)) was “Dose-dependent analgesic effects”; in data set [4] (GW mice, p.o. at 1.5 and 5 mg/kg, 90 minutes before analysis (FIG. 9B)), “Dose-dependent analgesic effects”. Further, the “intestinal pain after repeated administration” value in data set [4] (GW mice, p.o. multiple doses over 10 days) is listed as “decreased intestinal pain in GW mice in a dose-dependent manner”; in data set [5] (multiple doses), “reduced intestinal pain”. Moreover, in data set [4] (GW mice), the “intestinal pain (VMR)” value is on record as “strongest inhibition of intestinal pain to baseline levels”.

In the case of `CC1CCN(CC[C@H]2CCCN2S(=O)(=O)c2cccc(O)c2)CC1.Cl` [SB7, SB-269970 hydrochloride, reference compound], the “intestinal pain (VMR)” value in data set [4] (GW mice) is recorded as “had no effect on intestinal nociception”; in data set [5] it was “had no effect on intestinal pain”. Besides, the “intestinal pain measured by VMR” value in data set [4] (i.p., 0.5 mg/Kg, IBS-like mouse model (FIG. 7)) is “significantly inhibited intestinal pain levels”.

With `COc1ccc(-c2c(O)c(OC)cc3c2CN(CCc2ccccc2F)CC3)c(OC)c1` [Compound 6], the inhibitory constant (Ki) in data set [1] is 3.5 nM; in data set [2] it was 2.2 nM. Moreover, the logD in data set [3] is 3.98.

As for `Cc1[nH]cnc1CN1CCc2c(c3ccccc3n2C)C1=O` [ALN, alosetron hydrochloride], the “intestinal pain (VMR)” value in data set [4] (GW mice) is “reduced intestinal pain but was less efficient compared to compound 8”; in data set [5] it was “had no effect on intestinal pain”. Also, the “mice with hyperemia and granulocyte infiltration in the colonic tissues” value in data set [6] (C57BL/6, mouse, in vivo) was found to be 14%. In addition, the colonic histology entry in data set [6] (p.o. 5 mg/Kg, GW and TNBS mice, hydrochloride, 5 mg/kg) was “Hyperemia (*) and granulocyte infiltration (arrowheads) were observed”.

Take `CN(C)C(=O)C(CCN1CCC(O)(c2ccc(Cl)cc2)CC1)(c1ccccc1)c1ccccc1` [LPM, loperamide hydrochloride, reference compound]: the “intestinal pain (VMR)” value is recorded as “had no effect on intestinal nociception” in data set [4] (GW mice) and “had no effect on intestinal pain” in data set [5].

Regarding `COc1ccccc1-c1c(O)c(OC)cc2c1CN(CCCc1ccc([N+](=O)[O-])cc1)CC2` [Compound 7, 6-methoxy-8-(2-methoxyphenyl)-2-(3-(4-nitrophenyl)propyl)-1,2,3,4-tetrahydroisoquinolin-7-ol], the figures for the Ki in data set [1] and in data set [2] were 1.4 nM and 70 nM, respectively. In data set [3], this compound gave a logD of 3.66.

As for `COc1ccccc1-c1c(O)c(OC)cc2c1CN(CCCc1cccnc1)CC2` [Compound 9, 6-methoxy-8-(2-methoxyphenyl)-2-(3-(pyridin-3-yl)propyl)-1,2,3,4-tetrahydroisoquinolin-7-ol], the inhibition constant (Ki) is 4.9 nM in data set [1] and over 1000 nM in data set [2]. The compound also had a log distribution coefficient (logD) in data set [3] of 1.7.
